Test results reported in patent US20240043404A1 (AbbVie Inc., priority 2009, published 2024).

Tested on: RS4;11 cells
Test: RS4;11 cell viability assay (CellTiter Glo);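 also: acute lymphoblastic leukemia line RS4,11, EC50 derived from percentage of viable cells after treatment relative to untreated controls, cell killing taken as a measure of Bcl-2 inhibition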
Type: cell-based, human
Conditions: Homo sapiens, RS4-11, 48 h, 50,000 cells per well, 10% human serum, 48 hours; read-out: RS4; 11 EC50 Values
Experimental: The acute lymphoblastic leukemia (ALL) cell line RS4;11 was used as the primary human cell line to assess the cellular activity of Bcl-2 selective agents in vitro and their efficacy in vivo.
Cell cytotoxicity EC50 values were assessed using CellTiter Glo (Promega) according to the manufacturer's recommendations. The EC50 values were determined as a percentage of viable cells following treatment compared to the untreated control cells.

EC50 [nM] | Structure (SMILES)
12.4 | CC1(C)CCC(CN2CCN(c3ccc(C(=O)NS(=O)(=O)c4ccc(OCC5(F)CCN(C6COC6)CC5)c(Cl)c4)c(Oc4cnc5[nH]ccc5c4)c3)CC2)=C(c2ccc(Cl)cc2)C1 [Example 322, N-[(3-chloro-4-{[4-fluoro-1-(oxetan-3-yl)piperidin-4-yl]methoxy}phenyl)sulfonyl]-4-(4-{[2-(4-chlorophenyl)-4,4-dimethylcyclohex-1-en-1-yl]methyl}piperazin-1-yl)-2-(1H-pyrrolo[2,3-b]pyridin-5-yloxy)benzamide]
10.8 | CC1(C)CCC(CN2CCN(c3ccc(C(=O)NS(=O)(=O)c4ccc(NCC5CCOC5)c([N+](=O)[O-])c4)c(Oc4cnc5[nH]ccc5c4)c3)CC2)=C(c2ccc(Cl)cc2)C1 (stereo not shown) [Example 114, 4-(4-{[2-(4-chlorophenyl)-4,4-dimethylcyclohex-1-en-1-yl]methyl}piperazin-1-yl)-N-({3-nitro-4-[(tetrahydrofuran-3-ylmethyl)amino]phenyl}sulfonyl)-2-(1H-pyrrolo[2,3-b]pyridin-5-yloxy)benzamide]
125 | CC1(C)CCC(CN2CCN(c3ccc(C(=O)NS(=O)(=O)c4ccc(NCC5COCCN5C5CCC5)c([N+](=O)[O-])c4)c(Oc4cnc5[nH]ccc5c4)c3)CC2)=C(c2ccc(Cl)cc2)C1 (stereo not shown) [Example 170, 4-(4-{[2-(4-chlorophenyl)-4,4-dimethylcyclohex-1-en-1-yl]methyl}piperazin-1-yl)-N-[(4-{[(4-cyclobutylmorpholin-3-yl)methyl]amino}-3-nitrophenyl)sulfonyl]-2-(1H-pyrrolo[2,3-b]pyridin-5-yloxy)benzamide]
9.75 | CC1(C)CCC(CN2CCN(c3ccc(C(=O)NS(=O)(=O)c4ccc(OCC5(F)CCNCC5)c([N+](=O)[O-])c4)c(Oc4cnc5[nH]ccc5c4)c3)CC2)=C(c2ccc(Cl)cc2)C1 [Example 127, 4-(4-{[2-(4-chlorophenyl)-4,4-dimethylcyclohex-1-en-1-yl]methyl}piperazin-1-yl)-N-({4-[(4-fluoropiperidin-4-yl)methoxy]-3-nitrophenyl}sulfonyl)-2-(1H-pyrrolo[2,3-b]pyridin-5-yloxy)benzamide]
352 | CC1(C)CCC(CN2CCN(c3ccc(C(=O)NS(=O)(=O)c4cnc(OCC5COCCO5)c(C#N)c4)c(Oc4cnc5[nH]ccc5c4)c3)CC2)=C(c2ccc(Cl)cc2)C1 (stereo not shown) [Example 49, 4-(4-{[2-(4-chlorophenyl)-4,4-dimethylcyclohex-1-en-1-yl]methyl}piperazin-1-yl)-N-{[5-cyano-6-(1,4-dioxan-2-ylmethoxy)pyridin-3-yl]sulfonyl}-2-(1H-pyrrolo[2,3-b]pyridin-5-yloxy)benzamide]
2.07 | CC1(C)CCC(CN2CCN(c3ccc(C(=O)NS(=O)(=O)c4ccc(NC[C@H]5CCN(C6COC6)C5)c([N+](=O)[O-])c4)c(Oc4cnc5[nH]ccc5c4)c3)CC2)=C(c2ccc(Cl)cc2)C1 [Example 195, 4-(4-{[2-(4-chlorophenyl)-4,4-dimethylcyclohex-1-en-1-yl]methyl}piperazin-1-yl)-N-{[3-nitro-4-({[(3R)-1-oxetan-3-ylpyrrolidin-3-yl]methyl}amino)phenyl]sulfonyl}-2-(1H-pyrrolo[2,3-b]pyridin-5-yloxy)benzamide]
24.1 | CC1(C)CCC(CN2CCN(c3ccc(C(=O)NS(=O)(=O)c4ccc(NCC5(N)CCOCC5)c([N+](=O)[O-])c4)c(Oc4cnc5[nH]ccc5c4)c3)CC2)=C(c2ccc(Cl)cc2)C1 [Example 108, N-[(4-{[(4-aminotetrahydro-2H-pyran-4-yl)methyl]amino}-3-nitrophenyl)sulfonyl]-4-(4-{[2-(4-chlorophenyl)-4,4-dimethylcyclohex-1-en-1-yl]methyl}piperazin-1-yl)-2-(1H-pyrrolo[2,3-b]pyridin-5-yloxy)benzamide]
